According to patent US8883789B2, “Piperazine derivatives and their use as positive allosteric modulators of mGluR5 receptors” (Boehringer Ingelheim International GmbH, priority 2011, dated 2014):

Target: T1, human recombinant mGluR5 (Homo sapiens, UniProt P41594)
T1 construct: expressed in transfected cells; hygromycin and geneticin selection
Assay: positive modulation of mGluR5, calcium based FLIPR assay
Details: HEK 293 cell line expressing human recombinant mGluR5; Ca2+ peak height after glutamate at approximately 5% basal stimulation; nonlinear regression
Method: The positive modulation of mGluR5 is measured in a HEK 293 cell line expressing human recombinant mGluR5 and is detected with calcium based FLIPR assay. The cells are cultured with DMEM supplemented with 10% FCS, 2 μg/mL tetracycline, 100 μg/mL hygromycin and 500 μg/mL geneticin. The cell culture media is exchanged for tetracycline-free cell culture media 3-7 days before the assay. One day before the assay the cell culture medium is exchanged to DMEM without glutamine and phenol red and supplemented with 10% FCS, 100 μg/mL hygromycin and 500 μg/mL geneticin. On the assay day, the medium of the subconfluent cultures is removed and the cells are detached by addition of 2.5 ml EDTA (0.02%) per 175 cm2 culture flask for 1 minute. The cells are resuspend in Ringer solution (140 mM NaCl, 5 mM KCl, 2.5 mM CaCl2, 1.5 mM MgCl2, 5 mM Glucose, 10 mM Hepes; adjusted to pH 7.4 with NaOH), pooled and Ringer solution added to adjust the volume to 50 mL. The cell suspension is centrifuged for […] at 1500 U/min (425 g). The supernatant is removed and the cells washed a second time with 50 ml fresh Ringer solution and centrifuged again as before. The supernatant is again removed and the pellet resuspended in Ringer solution to 1,000,000 cells/ml (1×10^6 cells/mL). The cells are plated onto BD BioCoat Poly-D-Lysine 384 well plates (20.000 cells/well; 20 μl/well). The lid covered plates are then incubated until use at 37° C./10% CO2. For dye loading, 20 μl of Calcium-4 assay kit solution (prepared according to the manufacturer's description in Ringer solution) are added to the cells and the plates are incubated for 80 min 37° C. and then 10 min at room temperature.
Controls, Compound Dilution and Assay Execution:
Each assay plate contained wells with “high” and “low” controls:
Low controls 1% DMSO/ringer solution+basal glutamate activation (defined as 100% CTL).
High controls 10 μM CDPPB+basal glutamate activation (defined as 200% CTL).
Test compounds are dissolved and diluted in DMSO to 100-fold the desired concentrations. In a second step, the compounds are diluted in Ringer solution such that the compounds are 4-fold more concentrated than the desired final assay concentration. The final DMSO concentration was 1%.
20 μl of each compound solution are then transferred to the assay plate and the Ca2+ kinetic is measured to determine any intrinsic compound activity. After 5 min incubation in the FLIPR device, the second stimulation with 20 μl of glutamate in Ringer solution (glutamate concentration adjusted to approximately 5% basal stimulation of the maximal possible glutamate effect) is added and the kinetic Ca2+ response of the wells was measured for the modulation effect.
The peak height of the Ca release related fluorescence signal (9-66) is used for the EC50.
The EC50 of the modulation is calculated over a nonlinear regression with GraphPad Prism (Table 1).

T1 sequence (P41594 21-1212): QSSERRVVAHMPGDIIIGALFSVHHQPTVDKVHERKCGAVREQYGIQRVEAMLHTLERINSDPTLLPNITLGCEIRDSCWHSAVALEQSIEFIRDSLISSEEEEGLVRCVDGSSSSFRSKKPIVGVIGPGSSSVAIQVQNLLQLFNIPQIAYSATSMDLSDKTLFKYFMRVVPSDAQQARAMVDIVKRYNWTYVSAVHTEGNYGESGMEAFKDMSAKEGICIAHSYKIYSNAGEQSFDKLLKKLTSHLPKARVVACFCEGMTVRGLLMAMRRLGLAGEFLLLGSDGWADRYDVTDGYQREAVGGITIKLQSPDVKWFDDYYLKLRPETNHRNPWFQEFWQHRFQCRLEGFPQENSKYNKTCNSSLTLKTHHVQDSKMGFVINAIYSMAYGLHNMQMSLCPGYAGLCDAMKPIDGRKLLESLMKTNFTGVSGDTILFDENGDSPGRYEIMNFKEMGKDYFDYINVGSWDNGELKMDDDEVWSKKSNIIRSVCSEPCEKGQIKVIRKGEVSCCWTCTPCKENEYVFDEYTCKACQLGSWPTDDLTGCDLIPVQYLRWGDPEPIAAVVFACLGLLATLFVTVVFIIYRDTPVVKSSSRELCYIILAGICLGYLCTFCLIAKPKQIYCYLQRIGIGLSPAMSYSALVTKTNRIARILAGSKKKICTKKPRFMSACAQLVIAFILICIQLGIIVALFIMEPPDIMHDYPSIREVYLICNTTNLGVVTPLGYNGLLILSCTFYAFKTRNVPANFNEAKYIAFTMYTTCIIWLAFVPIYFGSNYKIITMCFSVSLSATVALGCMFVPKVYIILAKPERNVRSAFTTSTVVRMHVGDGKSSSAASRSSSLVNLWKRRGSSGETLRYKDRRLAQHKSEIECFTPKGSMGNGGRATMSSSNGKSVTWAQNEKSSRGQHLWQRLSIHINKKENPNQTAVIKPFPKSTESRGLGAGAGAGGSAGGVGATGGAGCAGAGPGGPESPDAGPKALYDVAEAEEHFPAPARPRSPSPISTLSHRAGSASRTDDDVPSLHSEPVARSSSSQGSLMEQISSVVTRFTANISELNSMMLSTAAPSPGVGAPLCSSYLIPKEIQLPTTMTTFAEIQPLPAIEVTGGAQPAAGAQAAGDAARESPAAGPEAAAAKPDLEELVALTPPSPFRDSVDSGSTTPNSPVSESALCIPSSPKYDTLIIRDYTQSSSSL

| SMILES | EC50 |
| --- | --- |
| CC1CN(C(=O)c2cc3c(Cl)cccc3s2)CCN1C(=O)c1ncn(-c2ccccc2)n1 (stereo not shown) [Example 293] | 361 nM |
| Cc1c(C(=O)N2CCN(C(=O)c3ncn(-c4cccc(Cl)c4)n3)C(C)C2)oc2c(F)cccc12 (stereo not shown) [Example 284] | 858 nM |
| COc1cccc(C(=O)N2CCN(C(=O)c3ncn(-c4cc(F)ccc4F)n3)C(C)(C)C2)n1 [Example 197, [1-(2,5-Difluoro-phenyl)-1H-[1,2,4]triazol-3-yl]-[4-(6-methoxy-pyridine-2-carbonyl)-2,2-dimethyl-piperazin-1-yl]-methanone] | 149 nM |
| CCc1ccc(C(=O)N2CCN(C(=O)c3ncn(-c4cccc(Cl)c4)n3)C(C)(C)C2)cc1 [Example 81] | 155 nM |
| Cc1cc2cc(C(=O)N3CCN(C(=O)c4ncn(-c5cccc(Cl)c5)n4)C(C)(C)C3)ccc2[nH]1 [Example 80] | 139 nM |
| Cn1nc(C(=O)N2CCN(C(=O)c3ncn(-c4ccccc4)n3)C(C)(C)C2)c2ccccc21 [Example 123] | 254 nM |
| Cc1cc(C)cc(C(=O)N2CCN(C(=O)c3ncn(-c4cccc(Cl)c4)n3)C(C)(C)C2)c1 [Example 70] | 142 nM |
| COc1ccc2oc(C)c(C(=O)N3CCN(C(=O)c4ncn(-c5cccc(C)c5)n4)C(C)C3)c2c1 (stereo not shown) [Example 290] | 272 nM |
| Cc1ccc(C(=O)N2CCN(C(=O)c3ncn(-c4cccc(Cl)c4)n3)C(C)(C)C2)cc1Cl [Example 71] | 47 nM |
| O=C(c1cccc(Cl)c1)N1CCN(C(=O)c2ncn(-c3ccccc3)n2)C2(CCCC2)C1 [Example 309] | 145 nM |
| COc1cc(Br)cc(C(=O)N2CCN(C(=O)c3ncn(-c4cccc(Cl)c4)n3)C(C)(C)C2)n1 [Example 12] | 19 nM |
| CC1(C)CN(C(=O)c2cccc(-c3cnco3)c2)CCN1C(=O)c1ncn(-c2cccc(Cl)c2)n1 [Example 28] | 99 nM |
| Cc1cc(C(=O)N2CCN(C(=O)c3ncn(-c4cccc(F)c4)n3)C(C)(C)C2)oc1C [Example 174, [4-(4,5-Dimethyl-furan-2-carbonyl)-2,2-dimethyl-piperazin-1-yl]-[1-(3-fluoro-phenyl)-1H-[1,2,4]triazol-3-yl]-methanone] | 221 nM |
| COc1cc(C(=O)N2CCN(C(=O)c3ncn(-c4cccc(F)c4)n3)CC2C)ccc1C (stereo not shown) [Example 233] | 476 nM |
| COCc1c(C(=O)N2CCN(C(=O)c3ncn(-c4ccccc4)n3)C(C)(C)C2)oc2ccccc12 [Example 107] | 108 nM |
| CC1CN(C(=O)c2cc3ccccc3o2)CCN1C(=O)c1ncn(-c2cccc(Cl)c2)n1 (stereo not shown) [Example 267] | 558 nM |
| COc1cccc(C(=O)N2CCN(C(=O)c3ncn(-c4cccc(F)c4)n3)C(C)(C)C2)n1 [Example 4] | 101 nM |
| COCc1c(C(=O)N2CCN(C(=O)c3ncn(-c4cccc(Cl)c4)n3)C(C)C2)oc2ccccc12 (stereo not shown) [Example 274] | 810 nM |
| CC(C)(C)c1cccc(C(=O)N2CCN(C(=O)c3ncn(-c4ccccc4)n3)C(C)(C)C2)c1 [Example 130] | 31 nM |
| Cc1cc(Cl)cc(C(=O)N2CCN(C(=O)c3ncn(-c4cccc(Cl)c4)n3)C(C)(C)C2)n1 [Example 36] | 383 nM |
| Cc1c(C(=O)N2CCN(C(=O)c3ncn(-c4ccccc4)n3)C(C)C2)oc2ccc(F)cc12 (stereo not shown) [Example 294] | 1080 nM |
| COc1cccc(C(=O)N2CCN(C(=O)c3ncn(-c4ccc(C)c(F)c4)n3)C(C)(C)C2)n1 [Example 159] | 693 nM |
| CCc1ccc(C(=O)N2CCN(C(=O)c3ncn(-c4cccc(Cl)c4)n3)C(C)(C)C2)o1 [Example 60] | 69 nM |
| COc1cccc(C(=O)N2CCN(C(=O)c3ncn(-c4cccc(Cl)c4)n3)CC2(C)C)n1 [Example 257, {4-[1-(3-Chloro-phenyl)-1H-[1,2,4]triazole-3-carbonyl]-2,2-dimethyl-piperazin-1-yl}-(6-methoxy-pyridin-2-yl)-methanone] | 1100 nM |
| CC(C)c1cccc(C(=O)N2CCN(C(=O)c3nnn(-c4ccccc4)n3)C(C)(C)C2)c1 [Example 167] | 15 nM |
| CC1(C)CN(C(=O)c2cccc(C3CCOCC3)n2)CCN1C(=O)c1ncn(-c2cccc(Cl)c2)n1 [Example 176, [1-(3-Chloro-phenyl)-1H-[1,2,4]-triazol-3-yl]-{2,2-dimethyl-4-[6-(tetrahydro-pyran-4-yl)-pyridine-2-carbonyl]-piperazin-1-yl}-methanone] | 366 nM |
| CC1(C)CN(C(=O)c2cccc(C3CC3)n2)CCN1C(=O)c1nnn(-c2cccc(Cl)c2)n1 [Example 182] | 28 nM |
| Cn1nccc1-c1cccc(C(=O)N2CCN(C(=O)c3ncn(-c4cccc(Cl)c4)n3)C(C)(C)C2)n1 [Example 91] | 113 nM |

| SMILES | EC50 |
| --- | --- |
| COc1cccc(C(=O)N2CCN(C(=O)c3nnn(-c4ccc(F)cc4)n3)C(C)(C)C2)n1 [Example 200] | 132 nM |
| CCC1CN(C(=O)c2ncn(-c3cccc(F)c3)n2)CCN1C(=O)c1cccc(OC)n1 (stereo not shown) [Example 259] | 231 nM |
| COc1ccnc(C(=O)N2CCN(C(=O)c3ncn(-c4cccc(Cl)c4)n3)C(C)(C)C2)c1 [Example 40] | 852 nM |
| CC1(C)CN(C(=O)c2cccc(COc3ccccc3)c2)CCN1C(=O)c1ncn(-c2cccc(Cl)c2)n1 [Example 74] | 170 nM |
| CC1(C)CN(C(=O)c2nccc(C(F)(F)F)n2)CCN1C(=O)c1ncn(-c2ccccc2)n1 [Example 147] | 613 nM |
| Cn1ccc2cc(C(=O)N3CCN(C(=O)c4ncn(-c5ccccc5)n4)C(C)(C)C3)ccc21 [Example 138] | 136 nM |
| CC1CN(C(=O)c2ncn(-c3cccc(Cl)c3)n2)CCN1C(=O)c1cccc(-c2ccn(C)n2)c1 (stereo not shown) [Example 225] | 498 nM |
| CCC[C@H]1CN(C(=O)c2ncn(-c3cccc(F)c3)n2)CCN1C(=O)c1cc(Br)c(Br)o1 [Example 262] | 193 nM |
| COc1cccc(C(=O)N2CCN(C(=O)c3nnn(-c4cccc(Cl)c4)n3)C(C)(C)C2)n1 [Example 199] | 69 nM |
| CC1(C)CN(C(=O)c2cccc(C(F)(F)F)c2)CCN1C(=O)c1ncn(-c2ccccc2)n1 [Example 98] | 32 nM |
| CC1CN(C(=O)c2ncn(-c3cccc(Cl)c3)n2)CCN1C(=O)c1ccc2ccn(C)c2c1 (stereo not shown) [Example 222] | 294 nM |
| Cc1oc2ccccc2c1C(=O)N1CCN(C(=O)c2ncn(-c3ccccc3)n2)C(C)(C)C1 [Example 106] | 89 nM |
| COc1ccc(C(=O)N2CCN(C(=O)c3ncn(-c4cccc(Cl)c4)n3)C(C)(C)C2)nc1OC [Example 79] | 230 nM |
| CC1(C)CN(C(=O)c2cc3ccccc3cn2)CCN1C(=O)c1ncn(-c2cccc(Cl)c2)n1 [Example 35] | 350 nM |
| COc1ccc2c(OC)nc(C(=O)N3CCN(C(=O)c4ncn(-c5cccc(Cl)c5)n4)C(C)(C)C3)cc2c1 [Example 31] | 160 nM |
| COc1cc(C(=O)N2CCN(C(=O)c3ncn(-c4ccccc4)n3)C(C)C2)ccc1C (stereo not shown) [Example 292] | 1210 nM |
| CC1(C)CN(C(=O)c2cccc(-c3ccc(C#N)cc3)c2)CCN1C(=O)c1ncn(-c2cccc(Cl)c2)n1 [Example 78] | 146 nM |
| CC1(C)CN(C(=O)c2cc(Cl)cc(C(F)(F)F)c2)CCN1C(=O)c1ncn(-c2ccccc2)n1 [Example 145] | 120 nM |
| CCn1ccc(C(=O)N2CCN(C(=O)c3ncn(-c4cccc(Cl)c4)n3)C(C)(C)C2)n1 [Example 56] | 436 nM |
| CC1CN(C(=O)c2cccc(-c3nccs3)c2)CCN1C(=O)c1ncn(-c2cccc(Cl)c2)n1 (stereo not shown) [Example 270] | 677 nM |
| Cc1cccc(-n2cnc(C(=O)N3CCN(C(=O)c4c(C)oc5ccccc45)C(C)C3)n2)c1 (stereo not shown) [Example 238] | 317 nM |
| COc1cccc(C(=O)N2CCN(C(=O)c3ncn(-c4cccc(Cl)c4)n3)C(C)(C)C2)c1 [Example 43] | 80 nM |
| CC1(C)CN(C(=O)c2cccc(C3CC3)n2)CCN1C(=O)c1ncn(-c2ccccc2)n1 [Example 183] | 49 nM |
| CC1(C)CN(C(=O)c2cc(Cl)c3c(c2)OCCO3)CCN1C(=O)c1ncn(-c2cccc(F)c2)n1 [Example 3] | 86 nM |
| CC1CN(C(=O)c2cccc3c2OCO3)CCN1C(=O)c1ncn(-c2cccc(Cl)c2)n1 (stereo not shown) [Example 286] | 1330 nM |
| CC(C)COc1cccc(C(=O)N2CCN(C(=O)c3ncn(-c4cccc(Cl)c4)n3)CC2C)c1 (stereo not shown) [Example 216] | 612 nM |
| CC1CN(C(=O)c2ccc3ccn(C)c3c2)CCN1C(=O)c1ncn(-c2cccc(Cl)c2)n1 (stereo not shown) [Example 272] | 350 nM |
